Results reported in patent US12377042B2, “Botanical and bacterial extracts displaying retinol-like activity” (KENVUE BRANDS LLC, priority 2018, dated 2025).

Legend:
[1] = target: T1, Retinoic acid receptor gamma (RARg) (Homo sapiens, UniProt P13631); assay: RARg Transactivation Assay (GeneBLAzer RAR gamma-UAS-bla HEK 293T); assay type: cell-based; details: solution in DMSO at different concentrations
T1 construct: the UAS-driven beta-lactamase is the reporter
T1 sequence (P13631 185-419 limits assumed): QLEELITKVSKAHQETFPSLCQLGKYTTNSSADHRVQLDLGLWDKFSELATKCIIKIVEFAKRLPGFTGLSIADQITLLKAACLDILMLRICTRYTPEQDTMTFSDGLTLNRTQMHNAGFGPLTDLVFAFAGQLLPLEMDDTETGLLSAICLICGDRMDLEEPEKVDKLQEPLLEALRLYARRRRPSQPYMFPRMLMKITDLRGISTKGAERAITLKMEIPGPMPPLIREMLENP
Experimental: Retinoic acid receptor gamma (RARg) agonism was assessed using the Invitrogen GeneBLAzer RAR gamma-UAS-bla HEK 293T cell-based assay, in which activation of RARg results in transcription of beta lactamase. When a FRET probe is added to cells, FRET is observed. However, upon receptor activation and subsequent beta lactamase expression, the probe is cleaved and FRET is no longer observed.
Cells in culture are washed with PBS, trypsinized and resuspended in growth media, counted using ViCell cell counter; the appropriate amount of cells is then spun down and resuspended in assay buffer (at 0.5E6 cells/ml). 15 k cells in 30 ul assay buffer is plated per well in Greiner black walled, clear flat bottom plates using Combi dispenser. The last two columns are filled with assay buffer. […]
After 18-20 h of incubation, 8 ul FRET dye (Invitrogen K1096) is added using Tempest dispenser, after which plates are spun down at 800 rpm for 2 min without brakes and incubated in the dark at room temperature for 2 h. The bottom of the plates is cleaned using anti-static cleaning wipe before measuring fluorescence using BMG Pherastar plate reader (using FRET module, 10 reads, gain for both channels=1000, Ex 409, Em1 460, Em2 530). […]

[2] = test system: human epidermal skin equivalents; assay: Oleic acid induced hyperkeratinization in human epidermal skin equivalents; assay type: cell-based; details: for % Hyperkeratinization (normalized by 10% OA), Average / Stratum Corneum Thickness (% of Total Epidermis), Average: topical
Experimental: Human epidermal skin equivalents from MatTek Company (Ashland, MA, USA) were used. The skin equivalents were topically treated with 10% oleic acid (OA) either without or with the addition of 1 μM 3-(4-farnesyloxyphenyl)-propionic acid in a proprietary MatTek medium (pheno-red free, hydrocortisone free) for 48 hours. The epidermal skin equivalents were collected at the end of treatment and fixed in 10% neutral buffered formalin solution (Thermo Fisher Scientific, Hudson, NH, USA), dehydrated and embedded in paraffin. Tissue sections (5 μm thick) were cut and were stained with hematoxylin-eosin. Three pictures per section were taken for each skin equivalent. The thickness of the stratum cornea or epidermis was measured using ImagePro Plus (Media Cybernetics Inc., Rockville, MD, USA). The stratum corneum thickness was expressed as % of total epidermis (=thickness of stratum corneum divided by the sum of thicknesses of stratum corneum and epidermis). The % hyperkeratinizatin was normalized by the thickness of 10% OA-treated tissues. Statistical analysis was performed using two-tailed two-sample equal variance Student t test (Microsoft Office Excel 2007; Microsoft, Redmond, WA, USA).

[3] = 1 uM together with 10% oleic acid, 48 hours

Row | EC50 [1] [nM] | SMILES | % Hyperkeratinization (normalized by 10% OA), Average [2, 3] [%] | Stratum Corneum Thickness (% of Total Epidermis), Average [2, 3] [%] | oleic-acid (OA) induced hyperkeratinization (in words) ([2]; 1 uM with 10% oleic acid, 48 hours, p<0.05) | Stratum Corneum Thickness (% of Total Epidermis), Average ([2]; 10% oleic acid alone, 48 hours) [%] | % Hyperkeratinization (normalized by 10% OA), Average ([2]; 10% oleic acid alone, 48 hours (reference)) [%]
1 | 594 | CC(C)=CCCC(C)=CCCC(C)=CCOc1ccc(CCC(=O)O)cc1 [3-(4-farnesyloxyphenyl)-propionic acid] | 76 | 38 | significantly (p<0.05) reduced | – | –
2 | – | CCCCCCCC/C=C\CCCCCCCC(=O)O [oleic acid, reference compound] | – | – | – | 50 | 100
